What all share (assay type): biochemical
The target in experiment [1] is T1, cathepsin B isolated from human liver (Homo sapiens, UniProt P07858).
T1 construct: cathepsin B—isolated from human liver; purchased Calbiochem 219362; host or cells: human liver (tissue isolate)
The experiment can be described thus: Cathepsin B kinetic fluorescence enzyme inhibition assay. The conditions noted are these: selectivity ratio versus calpain I. As for the experimental part: (§1) The following solutions and buffers were employed: • HBS (for 40 ml): 800 μl M HEPES; 2.16 ml 100 mM KCl; 4.8 ml 1M NaCl; 3.59 ml 5% glucose; 60 μl μM MgSO4; 400 μl 100 mM Na pyruvate, 28.19 ml water; pH 7.2-7.5. • lysis buffer (for 20 ml): 400 μl M Tris pH 8.2; 2.74 ml 1M NaCl; 520 μl 0.5M EDTA; 2 ml 10% triton X-100; 0.8 ml (=1:25) CompletePlus (1 tablet/2 ml H2O); 200 μl 100 mM Pefabloc; 13.34 ml water, pH 8.2. • TBST (10×) (for 1 l): 100 mM Tris (12.1 g); 1.5M NaCl (87 g); 1% Tween 20 (10 g), adjusted to pH 8. I Enzyme Inhibition In Vitro: • Testing for blockade of the corresponding enzymic activities was carried out by means of kinetic fluorescence assays (excitation 390 nm, emission 460 nm). • Apparent Ki values were calculated from the experimentally determined IC50 values by the Cheng-Prussoff relation assuming a reversible competitive enzyme inhibition. The Km values of the substrates used under the assay conditions indicated above were: 90 μM (Z-Phe-Arg-AMC, cathepsin B), 10 μM (Z-Gly-Pro-Arg-AMC, cathepsin K), 2 μM (Z-Phe-Arg-AMC, cathepsin L), and 30 μM (Z-Val-Val-Arg-AMC, cathepsin S). • The indicated Ki values are averages of the inhibition constants calculated on the basis of 2 to 4 independent dose-effect plots.
(§2) The following assays were used: • 1. Calpain I: • 20 nM calpain-I—isolated from human erythrocytes (Calbiochem #208713), 100 μM Suc-Leu-Tyr-AMC (Bachem #1-1355) as substrate in buffer with 62 mM imidazole, 0.3 mM CaCl2, 0.10% CHAPS, 0.05% BSA, 1 mM DTT at pH 7.3 and room temperature. • 2. Cathepsin B: • 0.25 nM cathepsin B—isolated from human liver (Calbiochem #219362), 100 μM Z-Phe-Arg-AMC (Bachem #I-1160) as substrate 50 mM MES, 2 mM EDTA, 0.05% Brij 35, 2.5 mM L-cysteine, pH 6.0, room temperature. • 3. Cathepsin K: • 3 nM cathepsin K—activated from recombinant human procathepsin K from E. coli (Calbiochem #342001), 10 μM Z-Gly-Pro-Arg-AMC (Biomol #P-142) as substrate in 50 mM MES, 2 mM EDTA, 0.05% Brij 35, 2.5 mM L-cysteine, pH 6.0, room temperature. • 4. Cathepsin L: • 1 nM cathepsin L—isolated from human liver (Calbiochem #219402), 2 μM Z-Phe-Arg-AMC (Bachem #1-1160) as substrate in 50 mM MES, 2 mM EDTA, 0.05% Brij 35, 2.5 mM L-cysteine, pH 6.0, room temperature. • 5. Cathepsin S: • 0.5 nM recombinant human cathepsin S from E. coli (Calbiochem #219343), 20 μM Z-Val-Val-Arg-AMC (Bachem #1-1540) as substrate in 50 mM MES, 2 mM EDTA, 0.05% Brij 35, 2.5 mM L-cysteine, pH 6.0, room temperature. • The results of the in vitro determination are indicated in Table 1. The following abbreviations are used in Table 1: • The “Calpain activity” column, ++ stands for a calpain Ki (Ki(calpain)) of ≦40 nM and + means: 40 nM<Ki(Calpain)≦100 nM. • The “Sel. cat. B” column indicates the Ki(cathepsin B)/Ki(calpain) ratio. In this connection, ++ means a Ki(cathepsin B)/Ki(calpain) ratio of ≧30 and + means 10≦Ki(cathepsin B)/Ki(calpain)<30. • The “Sel. cat. K” column indicates the Ki(cathepsin K)/Ki(calpain) ratio. In this connection, ++ means a Ki(cathepsin K)/Ki(calpain) ratio of ≧30 and + means 10≦Ki(cathepsin K)/Ki(calpain)<30. • The “Sel. cat. L” column indicates the Ki(cathepsin L)/Ki(calpain) ratio. In this connection, ++ means a Ki(cathepsin L)/Ki(calpain) ratio of ≧50 and + means 30≦Ki(cathepsin L)/Ki(calpain)<50. • The “Sel. cat. S” column indicates the Ki(cathepsin S)/Ki(calpain) ratio. In this connection, ++ means a Ki(cathepsin S)/Ki(calpain) ratio of ≧100 and + means 50≦Ki(cathepsin S)/Ki(calpain)<100.

The target of experiment [2] is T2, calpain-I isolated from human erythrocytes (Homo sapiens, UniProt P07384).
T2 construct: calpain-I—isolated from human erythrocytes; purchased Calbiochem 208713; host or cells: human erythrocytes (tissue isolate)
T2 sequence (P07384 1-714): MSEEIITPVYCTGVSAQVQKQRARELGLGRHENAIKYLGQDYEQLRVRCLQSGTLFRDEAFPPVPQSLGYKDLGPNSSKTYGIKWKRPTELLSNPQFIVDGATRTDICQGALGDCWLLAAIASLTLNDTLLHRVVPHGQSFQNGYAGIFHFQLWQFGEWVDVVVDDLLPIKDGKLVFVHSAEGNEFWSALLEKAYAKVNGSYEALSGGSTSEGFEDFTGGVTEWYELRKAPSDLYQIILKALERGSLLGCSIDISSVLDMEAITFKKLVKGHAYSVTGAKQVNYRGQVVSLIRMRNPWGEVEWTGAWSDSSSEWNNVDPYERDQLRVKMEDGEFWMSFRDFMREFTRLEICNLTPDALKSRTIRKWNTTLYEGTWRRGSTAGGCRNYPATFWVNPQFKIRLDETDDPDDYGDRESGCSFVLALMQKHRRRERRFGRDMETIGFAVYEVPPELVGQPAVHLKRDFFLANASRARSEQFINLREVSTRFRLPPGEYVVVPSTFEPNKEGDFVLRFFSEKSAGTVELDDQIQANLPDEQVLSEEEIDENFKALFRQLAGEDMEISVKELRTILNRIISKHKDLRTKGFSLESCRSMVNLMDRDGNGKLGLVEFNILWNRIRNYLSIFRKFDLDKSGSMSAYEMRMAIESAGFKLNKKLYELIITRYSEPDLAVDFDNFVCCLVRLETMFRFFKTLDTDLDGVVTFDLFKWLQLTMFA
T2 sequence (P04632 1-268 partner): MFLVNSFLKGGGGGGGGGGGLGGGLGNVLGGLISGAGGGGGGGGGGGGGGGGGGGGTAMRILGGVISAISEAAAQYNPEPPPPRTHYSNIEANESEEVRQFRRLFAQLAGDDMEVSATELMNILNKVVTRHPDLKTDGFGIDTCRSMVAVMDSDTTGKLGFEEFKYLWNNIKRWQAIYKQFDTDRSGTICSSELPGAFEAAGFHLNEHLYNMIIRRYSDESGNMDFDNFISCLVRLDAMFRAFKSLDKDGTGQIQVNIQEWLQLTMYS
Nature of the experiment: Calpain I kinetic fluorescence enzyme inhibition assay. The conditions noted are these: apparent Ki from IC50 by Cheng-Prussoff; average of 2 to 4 dose-effect plots.

For experiment [3], the target named is T3, recombinant human cathepsin S (Homo sapiens, UniProt P25774).
T3 construct: purchased Calbiochem 219343; host or cells: E. coli
Nature of the experiment: Cathepsin S kinetic fluorescence enzyme inhibition assay. The conditions noted are these: selectivity ratio versus calpain I. The method, boiled down: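 Inhibition is measured at room temperature in cysteine-containing MES buffer, pH 6.0, by continuous fluorescence at 460 nm. Cathepsin S (0.5 nM) uses 20 μM Z-Val-Val-Arg-AMC; L (1 nM) and B (0.25 nM) use Z-Phe-Arg-AMC at 2 and 100 μM respectively.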

Experiment [4] deals with T4, cathepsin L isolated from human liver (Homo sapiens, UniProt P07711).
T4 construct: cathepsin L—isolated from human liver; purchased Calbiochem 219402; host or cells: human liver (tissue isolate)
Nature of the experiment: Cathepsin L kinetic fluorescence enzyme inhibition assay. The conditions noted are these: selectivity ratio versus calpain I. As for the experimental part: as §1, §2

The results in this text go back to patent publication US7728012B2, “Carboxamide compounds and their use as calpain inhibitors” (Abbott GmbH & Co. KG, priority 2006, dated 2010).

T4 sequence (P07711 114-333): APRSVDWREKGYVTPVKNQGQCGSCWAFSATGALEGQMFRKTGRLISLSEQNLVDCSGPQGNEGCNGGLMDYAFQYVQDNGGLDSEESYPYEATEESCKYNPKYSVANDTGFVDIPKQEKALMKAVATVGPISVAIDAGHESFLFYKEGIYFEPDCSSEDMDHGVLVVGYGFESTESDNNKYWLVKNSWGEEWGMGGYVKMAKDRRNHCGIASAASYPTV
T3 sequence (P25774 115-331): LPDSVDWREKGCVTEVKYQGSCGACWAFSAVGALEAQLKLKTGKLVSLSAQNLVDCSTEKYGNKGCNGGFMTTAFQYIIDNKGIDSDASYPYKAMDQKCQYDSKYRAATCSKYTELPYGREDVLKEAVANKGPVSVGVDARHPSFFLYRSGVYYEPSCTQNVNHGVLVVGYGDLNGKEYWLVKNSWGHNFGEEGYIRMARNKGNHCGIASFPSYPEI

Regarding `CCCCC(NC(=O)c1cc(Cl)cnc1-n1ccc(-c2ccccc2)n1)C(=O)C(N)=O` (stereo not shown) [Example 28, N-{1-[Amino(oxo)acetyl]pentyl}-5-chloro-2-(3-phenyl-1H-pyrazol-1-yl)nicotinamide], the “Sel cat. B (Ki(cathepsin B)/Ki(calpain) ratio)” value in experiment [1] is on record as “+ (10≦Ki(cathepsin B)/Ki(calpain)<30)”. Besides, the Ki in experiment [2] is at most 40 nM.

`CC(C)CC(NC(=O)c1cc(Cl)cnc1-n1ccc(-c2ccccc2)n1)C(=O)C(N)=O` (stereo not shown) [Example 32, N-{1-[Amino(oxo)acetyl]-3-methylbutyl}-5-chloro-2-(3-phenyl-1H-pyrazol-1-yl)nicotinamide]: in experiment [1], the “Sel cat. B (Ki(cathepsin B)/Ki(calpain) ratio)” value is “+ (10≦Ki(cathepsin B)/Ki(calpain)<30)”. For the same compound, in experiment [2], the Ki is at most 40 nM.

Consider `NC(=O)C(=O)C(Cc1ccccc1)NC(=O)c1cccnc1-n1ccc(-c2ccc(Cl)cc2)n1` (stereo not shown) [Example 39, N-(3-Amino-1-benzyl-2,3-dioxopropyl)-2-[3-(4-chlorophenyl)-1H-pyrazol-1-yl]nicotinamide], for which the “Sel cat. S (Ki(cathepsin S)/Ki(calpain) ratio)” value in experiment [3] is recorded as “++ (Ki(cathepsin S)/Ki(calpain) ratio of ≧100)”. In experiment [2], the Ki fell in the range of 40 to 100 nM. The “Sel cat. L (Ki(cathepsin L)/Ki(calpain) ratio)” value in experiment [4] is given as “++ (Ki(cathepsin L)/Ki(calpain) ratio of ≧50)”.

With `CCCCC(NC(=O)c1cccnc1-n1ccc(-c2ccc(OC)cc2)n1)C(=O)C(N)=O` (stereo not shown) [Example 49, N-{1-[Amino(oxo)acetyl]pentyl}-2-[3-(4-methoxyphenyl)-1H-pyrazol-1-yl]nicotinamide], in experiment [3], the “Sel cat. S (Ki(cathepsin S)/Ki(calpain) ratio)” value is “++ (Ki(cathepsin S)/Ki(calpain) ratio of ≧100)”. In experiment [2], the Ki lay in the range of 40 to 100 nM. In addition, the “Sel cat. L (Ki(cathepsin L)/Ki(calpain) ratio)” value in experiment [4] is listed as “+ (30≦Ki(cathepsin L)/Ki(calpain)<50)”.

As for `CCCCC(NC(=O)c1cccnc1-n1ccc(-c2cccc(N3CCOCC3)c2)n1)C(=O)C(N)=O` (stereo not shown) [Example 59, N-{1-[Amino(oxo)acetyl]pentyl}-2-[3-(3-morpholin-4-ylphenyl)-1H-pyrazol-1-yl]nicotinamide], the “Sel cat. S (Ki(cathepsin S)/Ki(calpain) ratio)” value in experiment [3] is reported as “+ (50≦Ki(cathepsin S)/Ki(calpain)<100)”. The Ki in experiment [2] was at most 40 nM. Moreover, in experiment [4], the “Sel cat. L (Ki(cathepsin L)/Ki(calpain) ratio)” value is given as “++ (Ki(cathepsin L)/Ki(calpain) ratio of ≧50)”.

As for `N#Cc1ccc(-c2ccn(-c3ncccc3C(=O)NC(Cc3ccccc3)C(=O)C(N)=O)n2)cc1` (stereo not shown) [Example 62, N-(3-Amino-1-benzyl-2,3-dioxopropyl)-2-[3-(4-cyanophenyl)-1H-pyrazol-1-yl]nicotinamide], in experiment [3], the “Sel cat. S (Ki(cathepsin S)/Ki(calpain) ratio)” value is given as “++ (Ki(cathepsin S)/Ki(calpain) ratio of ≧100)”. In addition, the Ki in experiment [2] fell in the range of 40 to 100 nM. In addition, the “Sel cat. L (Ki(cathepsin L)/Ki(calpain) ratio)” value in experiment [4] was “++ (Ki(cathepsin L)/Ki(calpain) ratio of ≧50)”.

`NC(=O)C(=O)C(Cc1ccccc1)NC(=O)c1cccnc1-n1cc2ccccc2n1` (stereo not shown) [Example 78, N-(3-Amino-1-benzyl-2,3-dioxopropyl)-2-(2H-indazol-2-yl)nicotinamide]: the “Sel cat. S (Ki(cathepsin S)/Ki(calpain) ratio)” value in experiment [3] was “+ (50≦Ki(cathepsin S)/Ki(calpain)<100)”. The Ki in experiment [2] lay in the range of 40 to 100 nM. Also, in experiment [4], the “Sel cat. L (Ki(cathepsin L)/Ki(calpain) ratio)” value is listed as “++ (Ki(cathepsin L)/Ki(calpain) ratio of ≧50)”.

In the case of `NC(=O)C(=O)C(Cc1ccccc1)NC(=O)c1ccccc1-n1ccc(-c2ccccc2)n1` (stereo not shown) [Example 106, N-[3-Amino-2,3-dioxo-1-(phenylmethyl)propyl]-2-(3-phenyl-1H-pyrazol-1-yl)benzamide], the “Sel cat. S (Ki(cathepsin S)/Ki(calpain) ratio)” value in experiment [3] is “++ (Ki(cathepsin S)/Ki(calpain) ratio of ≧100)”. For the same compound, the Ki in experiment [2] is at most 40 nM. In addition, the “Sel cat. L (Ki(cathepsin L)/Ki(calpain) ratio)” value in experiment [4] is listed as “+ (30≦Ki(cathepsin L)/Ki(calpain)<50)”.

Consider `NC(=O)C(=O)C(Cc1ccccc1)NC(=O)c1cccnc1-n1cc2c(n1)-c1ccccc1OCC2` (stereo not shown) [Example 141, N-[3-Amino-2,3-dioxo-1-(phenylmethyl)propyl]-2-(4,5-dihydro-2H-[1]benzoxepino[5,4-c]pyrazol-2-yl)pyridine-3-carboxamide], for which, in experiment [3], the “Sel cat. S (Ki(cathepsin S)/Ki(calpain) ratio)” value is “++ (Ki(cathepsin S)/Ki(calpain) ratio of ≧100)”. Also, in experiment [2], the Ki is 40 to 100 nM. In experiment [4], the “Sel cat. L (Ki(cathepsin L)/Ki(calpain) ratio)” value is listed as “++ (Ki(cathepsin L)/Ki(calpain) ratio of ≧50)”.

As to `CS(=O)(=O)NCc1cn(-c2ncccc2C(=O)NC(Cc2ccccc2)C(=O)C(N)=O)nc1-c1ccc(F)cc1` (stereo not shown) [Example 187, N-[3-Amino-2,3-dioxo-1-(phenylmethyl)propyl]-2-[3-(4-fluorophenyl)-4-{[(methylsulfonyl)amino]methyl}-1H-pyrazol-1-yl]pyridine-3-carboxamide], the “Sel cat. S (Ki(cathepsin S)/Ki(calpain) ratio)” value in experiment [3] was “++ (Ki(cathepsin S)/Ki(calpain) ratio of ≧100)”. In experiment [2], the Ki lay in the range of 40 to 100 nM. Also, the “Sel cat. L (Ki(cathepsin L)/Ki(calpain) ratio)” value in experiment [4] was “+ (30≦Ki(cathepsin L)/Ki(calpain)<50)”.
